By IC50 is commonly meant the point on the concentration scale where inhibition reaches its midpoint. A high value points to a need for much substance.

We go through 27 compounds from US20250154127A1, “BICYCLIC HETEROARYL COMPOUNDS AND USES THEREOF” (ETERN BIOPHARMA (SHANGHAI) CO., LTD., priority 2022, published 2025).

Some results are limits rather than exact numbers.

Experiment [1] concerns MSTO-211H cells. Briefly: Proliferation Assay (CellTiter-Glo Luminescent Cell Viability Assay). The class given is cell-based. The note with it: Homo sapiens, 96 hours treatment. The method, then:
Example 5: Proliferation Assay
The effect of compound on YAP driven cancer cells proliferation was assessed in MSTO-211H (ATCC, CRL-2081TM) or NCI-H2052 (ATCC, CRL-5915TM) cells using CellTiter-Glo Luminescent Cell Viability Assay (Promega, G7570).
Briefly, individual cell lines were seeded in 96-well cell culture plate at the density of 1,500 cells per well and cultured in RPMII1640 (Gibco-A10491-01)+10% FBS (Gibco-10099-141C)+1% Penicillin-Streptomycin (5,000 U/mL, Gibco-15070-063) overnight at 37° C. with 5% CO2 before adding the compounds.
Following incubation, serial dilutions of compounds dissolved in DMSO were added to each well (3-fold dilution with 9 concentration points). The final concentration of DMSO present in this assay is below 0.5% and make duplication for each compound treated well.
Following 96 hours treatment, compound mediated cell growth inhibition was measured using CellTiter-Go Luminescent Cell Viability Assay (Promega, G7570). […] CellTiter-Glo in each assay well, mix and incubate at room temperature for 10 min. Read signal using EnVision® Multilabel Plate Reader (Perkin Elmer).
For data analysis, cell proliferation inhibition was calculated using the following formula:
Inhibition %=(1−(Compound treated well CTG signal/DMSO well CTG signal))*100.
IC50 values were calculated using GraphPad Prism software using a four-parameter fit model.
(In general: In ATP-based viability assays light output follows the ATP content of the culture.)

The target in experiment [2] is TEAD1(210-426) binding to YAP(50-100) (Homo sapiens, UniProt P28347). Description: TR-FRET Assay for TEAD1(210-426) Binding to YAP(50-100). The note with it: His-TEAD 10 nM, YAP-Biotin peptide 50 nM. The method, then:
Compounds were performed 3 fold serial dilution, 12 data points, added to 384 well white plate. The final DMSO concentration is 1%, duplicate for each concentration. Then His-TEAD protein was added to a final concentration of 10 nM, and allowed to preincubate for 30 minutes at room temperature. Assay buffer was added as background control.
YAP-Biotin peptide was added to a final concentration of 50 nM, mixed well, incubate 10 minutes at room temperature. The YAP(50-100) peptide sequence used here is named SEQ ID NO: 2
The Europium-labeled anti-6×His antibody and APC labeled streptavidin were diluted according to the instructions, this detection solution was mixed 1:1 with reaction solution, incubated 1 hour at room temperature.
TR-FRET measurements were made on an Envision (Perkin Elmer), using an excitation wavelength of 320 nm and emissions read at 620 nm and 665 nm. The ratio of the 665 nm to the 620 nm multiply 10000 provides a normalized TR-FRET signal that represents the extent of binding.
Half inhibition concentration IC50 value was calculated by XLfit software.
For orientation: TR-FRET usually uses a lanthanide donor and a delayed reading to cut background.

Chain of TEAD1(210-426) binding to YAP(50-100) (P28347 209-426): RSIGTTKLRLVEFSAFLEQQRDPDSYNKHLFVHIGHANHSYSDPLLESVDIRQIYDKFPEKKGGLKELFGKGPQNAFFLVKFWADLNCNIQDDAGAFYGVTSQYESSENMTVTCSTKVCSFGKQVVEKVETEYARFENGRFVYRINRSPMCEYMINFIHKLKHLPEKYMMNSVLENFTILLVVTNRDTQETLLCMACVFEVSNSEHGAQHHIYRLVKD

For the compound `C[C@@H](c1ccccn1)n1ccc(-c2nn(-c3ccc(OC(F)(F)F)cc3)c3cccnc23)cc1=O` [Compound 1, (S)-1-(1-(pyridin-2-yl)ethyl)-4-(1-(4-(trifluoromethoxy)phenyl)-1H-pyrazolo[4,3-b]pyridin-3-yl)pyridin-2(1H)-one], the results for the IC50 in experiment [1] and in experiment [2] were no more than 1 µM and no more than 0.1 µM, respectively. With `C[C@@H](c1ccccn1)n1ccc(-c2nn(-c3ccc(C(F)(F)F)cc3)c3cccnc23)cc1=O` [Compound 2, (S)-1-(1-(pyridin-2-yl)ethyl)-4-(1-(4-(trifluoromethyl)phenyl)-1H-pyrazolo[4,3-b]pyridin-3-yl)pyridin-2(1H)-one], the IC50 in experiment [1] is no more than 1 µM; in experiment [2], no more than 0.1 µM.

In the case of `C[C@H](c1ccccn1)n1ccc(-c2nn(-c3ccc(C(F)(F)F)cc3)c3cccnc23)cc1=O` [Compound 3, (R)-1-(1-(pyridin-2-yl)ethyl)-4-(1-(4-(trifluoromethyl)phenyl)-1H-pyrazolo[4,3-b]pyridin-3-yl)pyridin-2(1H)-one], the results for the IC50 in experiment [1] and in experiment [2] were 1 to 10 µM and 0.1 to 1 µM, respectively. Regarding `C[C@@H](c1ccccn1)n1ccc(-c2nn(-c3ccc(F)cc3)c3cccnc23)cc1=O` [Compound 4, (S)-4-(1-(4-fluorophenyl)-1H-pyrazolo[4,3-b]pyridin-3-yl)-1-(1-(pyridin-2-yl)ethyl)pyridin-2(1H)-one], the IC50 was in the range of 1 to 10 µM in experiment [1] and 0.1 to 1 µM in experiment [2].

As to `C[C@@H](c1ccccn1)n1ccc(-c2nn(-c3ccc(Cl)cc3)c3cccnc23)cc1=O` [Compound 5, (S)-4-(1-(4-chlorophenyl)-1H-pyrazolo[4,3-b]pyridin-3-yl)-1-(1-(pyridin-2-yl)ethyl)pyridin-2(1H)-one], the figures for the IC50 in experiment [1] and in experiment [2] were 1 to 10 µM and no more than 0.1 µM, respectively. With `C[C@@H](c1ccccn1)n1ccc(-c2nn(-c3cccc(C(F)(F)F)c3)c3cccnc23)cc1=O` [Compound 6, (S)-1-(1-(pyridin-2-yl)ethyl)-4-(1-(3-(trifluoromethyl)phenyl)-1H-pyrazolo[4,3-b]pyridin-3-yl)pyridin-2(1H)-one], the IC50 fell in the range of 1 to 10 µM in experiment [1] and 0.1 to 1 µM in experiment [2].

Turning to `CCC(c1ccccn1)n1ccc(-c2nn(-c3ccc(C(F)(F)F)cc3)c3cccnc23)cc1=O` (stereo not drawn) [Compound 7, 1-(1-(pyridin-2-yl)propyl)-4-(1-(4-(trifluoromethyl)phenyl)-1H-pyrazolo[4,3-b]pyridin-3-yl)pyridin-2(1H)-one], the IC50 in experiment [1] was 1 to 10 µM; in experiment [2], no more than 0.1 µM. For `CC(C)n1ccc(-c2nn(-c3ccc(C(F)(F)F)cc3)c3cccnc23)cc1=O` [Compound 8, 1-isopropyl-4-(1-(4-(trifluoromethyl)phenyl)-1H-pyrazolo[4,3-b]pyridin-3-yl)pyridin-2(1H)-one], the figures for the IC50 in experiment [1] and in experiment [2] were no more than 1 µM and 0.1 to 1 µM, respectively. Consider `C[C@@H](c1ccccn1)n1ccc(-n2nc(-c3ccc(C(F)(F)F)cc3)c3ncccc32)cc1=O` [Compound 9, (S)-1-(1-(pyridin-2-yl)ethyl)-4-(3-(4-(trifluoromethyl)phenyl)-1H-pyrazolo[4,3-b]pyridin-1-yl)pyridin-2(1H)-one], for which the IC50 in experiment [1] is no more than 1 µM; in experiment [2] it was no more than 0.1 µM. In experiment [2], `Cn1ccc(-c2nn(-c3ccc(C(F)(F)F)cc3)c3cccnc23)cc1=O` [Compound 10, 1-methyl-4-(1-(4-(trifluoromethyl)phenyl)-1H-pyrazolo[4,3-b]pyridin-3-yl)pyridin-2(1H)-one] had an IC50 greater than 1 µM. For `C[C@@H](c1ccccn1)n1ccc(-c2nn(-c3ccc(C(F)(F)F)cc3)c3ccccc23)cc1=O` [Compound 11, (S)-1-(1-(pyridin-2-yl)ethyl)-4-(1-(4-(trifluoromethyl)phenyl)-1H-indazol-3-yl)pyridin-2(1H)-one], the figures for the IC50 in experiment [1] and in experiment [2] were no more than 1 µM and no more than 0.1 µM, respectively.

Turning to `O=c1cc(-c2nn(-c3ccc(C(F)(F)F)cc3)c3ccccc23)ccn1Cc1ccccn1` [Compound 12, 1-(pyridin-2-ylmethyl)-4-(1-(4-(trifluoromethyl)phenyl)-1H-indazol-3-yl)pyridin-2 (1H)-one], the IC50 in experiment [1] was 1 to 10 µM; in experiment [2], no more than 0.1 µM. As to `C[C@@H](c1cccnc1)n1ccc(-c2nn(-c3ccc(C(F)(F)F)cc3)c3ccccc23)cc1=O` [Compound 13, (S)-1-(1-(pyridin-3-yl)ethyl)-4-(1-(4-(trifluoromethyl)phenyl)-1H-indazol-3-yl)pyridin-2(1H)-one], the IC50 in experiment [1] was no more than 1 µM; in experiment [2] it was no more than 0.1 µM. Take `C[C@@H](c1ccncc1)n1ccc(-c2nn(-c3ccc(C(F)(F)F)cc3)c3ccccc23)cc1=O` [Compound 14, (S)-1-(1-(pyridin-4-yl)ethyl)-4-(1-(4-(trifluoromethyl)phenyl)-1H-indazol-3-yl)pyridin-2(1H)-one]: the values for the 50% inhibitory concentration (IC50) in experiment [1] and in experiment [2] were no more than 1 µM and no more than 0.1 µM, respectively. For `O=c1cc(-c2nn(-c3ccc(C(F)(F)F)cc3)c3ccccc23)ccn1Cc1ncccn1` [Compound 15, 1-(pyrimidin-2-ylmethyl)-4-(1-(4-(trifluoromethyl)phenyl)-1H-indazol-3-yl)pyridin-2(1H)-one], the IC50 is no more than 1 µM in experiment [1] and no more than 0.1 µM in experiment [2].

For the compound `Cc1cc(Cn2ccc(-c3nn(-c4ccc(C(F)(F)F)cc4)c4ccccc34)cc2=O)n(C)n1` [Compound 16, 1-((1,3-dimethyl-1H-pyrazol-5-yl)methyl)-4-(1-(4-(trifluoromethyl)phenyl)-1H-indazol-3-yl)pyridin-2(1H)-one], the IC50 in experiment [1] was no more than 1 µM; in experiment [2] it was 0.1 to 1 µM. Take `C[C@@H](c1ccccn1)n1ccc(-c2nn(-c3ccc(C(F)(F)F)cc3)c3ccc(C(=O)O)cc23)cc1=O` [Compound 21]: in experiment [2], the IC50 was 0.1 to 1 µM.

Take `COC(=O)c1ccc2c(c1)c(-c1ccn([C@@H](C)c3ccccn3)c(=O)c1)nn2-c1ccc(C(F)(F)F)cc1` [Compound 22, methyl (S)-3-(2-oxo-1-(1-(pyridin-2-yl)ethyl)-1,2-dihydropyridin-4-yl)-1-(4-(trifluoromethyl)phenyl)-1H-indazole-5-carboxylate]: the IC50 in experiment [2] was in the range of 0.1 to 1 µM. The same measure, in the same setting: as for `C[C@@H](c1ccccn1)n1ccc(-c2nn(-c3ccc(C(F)(F)F)cc3)c3ccc(C(N)=O)cc23)cc1=O` [Compound 23], the figure is 0.1 to 1 µM. Same read-out and setting: for `C[C@@H](c1ccccn1)n1ccc(-c2nn(-c3ccc(C(F)(F)F)cc3)c3ccc(C#N)cc23)cc1=O` [Compound 25] the value was 0.1 to 1 µM; for `COC(=O)c1ccc2c(-c3ccn([C@@H](C)c4ccccn4)c(=O)c3)nn(-c3ccc(C(F)(F)F)cc3)c2c1` [Compound 26, methyl (S)-3-(2-oxo-1-(1-(pyridin-2-yl)ethyl)-1,2-dihydropyridin-4-yl)-1-(4-(trifluoromethyl)phenyl)-1H-indazole-6-carboxylate], 0.1 to 1 µM. In turn, `O=c1cc(-c2nn(-c3ccc(C(F)(F)F)cc3)c3ccccc23)ccn1C1CCOCC1` [Compound 27] yielded an IC50 in experiment [2] greater than 1 µM. Regarding `C[C@@H](c1ccccn1)n1ccc(-n2nc(-c3ccc(C(F)(F)F)cc3)c3cccnc32)cc1=O` [Compound 32, (S)-1-(1-(pyridin-2-yl)ethyl)-4-(3-(4-(trifluoromethyl)phenyl)-1H-pyrazolo[3,4-b]pyridin-1-yl)pyridin-2(1H)-one], the IC50 in experiment [2] was no more than 0.1 µM.

`C[C@@H](c1ccccn1)n1ccc(-c2nc(-c3ccc(C(F)(F)F)cc3)n3ccccc23)cc1=O` [Compound 35, (S)-1-(1-(pyridin-2-yl)ethyl)-4-(3-(4-(trifluoromethyl)phenyl)imidazo[1,5-a]pyridin-1-yl)pyridin-2(1H)-one] displayed an IC50 in experiment [2] of no more than 0.1 µM. As for `Cn1cc(Cn2ccc(-c3nn(-c4ccc(C(F)(F)F)cc4)c4ccccc34)cc2=O)cn1` [Compound 36, 1-((1-methyl-1H-pyrazol-4-yl)methyl)-4-(1-(4-(trifluoromethyl)phenyl)-1H-indazol-3-yl)pyridin-2(1H)-one], the IC50 in experiment [2] is 0.1 to 1 µM. In turn, `CN(CCO)c1ccnc(Cn2ccc(-c3nn(-c4ccc(C(F)(F)F)cc4)c4ccccc34)cc2=O)n1` [Compound 79, 1-((4-((2-hydroxyethyl)(methyl)amino)pyrimidin-2-yl)methyl)-4-(1-(4-(trifluoromethyl)phenyl)-1H-indazol-3-yl)pyridin-2(1H)-one] yielded an IC50 in experiment [1] of no more than 1 µM.

Consider `CNc1nccc(Cn2ccc(-c3nn(-c4ccc(C(F)F)cc4)c4ncccc34)cc2=O)n1` [Compound 144, 4-(1-(4-(difluoromethyl)phenyl)-1H-pyrazolo[3,4-b]pyridin-3-yl)-1-((2-(methylamino)pyrimidin-4-yl)methyl) pyridin-2(1H)-one], for which the IC50 in experiment [1] was no more than 1 µM.
